Laboratory results taken from ChEMBL document CHEMBL1151924, “Characterization of lassa virus cell entry inhibitors: determination of the active enantiomer by asymmetric synthesis” (Bioorg Med Chem Lett, 2009).

Tested on: Lassa virus
Test: Antiviral activity against LASV infected in human A549 cells
Type: functional, organism-based, Mammarenavirus lassaense
Settings: Mammarenavirus lassaense, A549; read-out: IC50; call rule not given here

SMILES	IC50 [nM]
O=C(c1cc2ccccc2s1)N1CC(=O)N(Cc2ccc(Cl)cc2)C(Cc2ccccc2)C1 (configuration not stated)	2100
Cc1ccc(CN2C(=O)CN(C(=O)c3ccc(C)cc3)CC2CCc2ccccc2)cc1 (configuration not stated)	1200
COc1ccc(CN2C(=O)CN(C(=O)c3cc4ccccc4[nH]3)CC2CCc2ccccc2)cc1 (configuration not stated)	1700
COc1ccc(CN2C(=O)CN(C(=O)c3cc4ccccc4o3)CC2CCc2ccccc2)cc1 (configuration not stated)	1000
Cc1ccc(CN2C(=O)CN(C(=O)c3cc4ccccc4o3)C[C@H]2Cc2ccccc2)cc1	3000
O=C(c1cc2ccccc2o1)N1CC(=O)N(Cc2cccc(C(F)(F)F)c2)C(Cc2ccccc2)C1 (configuration not stated)	1800
COc1ccc(CN2C(=O)CN(C(=O)c3cc4ccccc4[nH]3)CC2Cc2ccccc2)cc1 (configuration not stated)	1200
COc1ccc(C(=O)N2CC(=O)N(Cc3ccc(C)cc3)C(CCc3ccccc3)C2)cc1 (configuration not stated)	400
COc1ccc(CN2C(=O)CN(C(=O)c3cc4ccccc4s3)CC2CCc2ccccc2)cc1 (configuration not stated)	500
Cc1ccc(CN2C(=O)CN(Cc3cc4ccccc4o3)C[C@@H]2Cc2ccccc2)cc1	10000
CCC1CN(C(=O)c2cc3ccccc3o2)CC(=O)N1Cc1cccc(C(F)(F)F)c1 (configuration not stated)	1600
CCC1CN(C(=O)c2cc3ccccc3[nH]2)CC(=O)N1Cc1cccc(C(F)(F)F)c1 (configuration not stated)	2400
O=C(c1cc2ccccc2o1)N1CC(=O)N(Cc2ccc(Cl)cc2)C(Cc2ccccc2)C1 (configuration not stated)	800
COc1ccc(CN2C(=O)CN(C(=O)c3cc4ccccc4o3)CC2Cc2ccccc2)cc1 (configuration not stated)	600
Cc1ccc(CN2C(=O)CN(C(=O)c3cc4ccccc4o3)C[C@@H]2Cc2ccccc2)cc1	200
Cc1ccc(CN2CCN(C(=O)c3cc4ccccc4o3)C[C@@H]2Cc2ccccc2)cc1	3100
Cc1ccc(CN2C(=O)CN(C(=O)c3cc4ccccc4o3)CC2Cc2ccccc2)cc1 (racemic)	800

Same assay, conditions: a549

SMILES	IC50
Cc1ccc(CN2C(=O)CNC[C@@H]2Cc2ccccc2)cc1	Not Active
O=C(c1cc2ccccc2o1)N1CCN[C@@H](Cc2ccccc2)C1	Not Active

Tested on: not listed separately
Test: Inhibition of JUNV envelope glycoprotein-mediated late endosomal pH-dependent membrane fusion by cell-cell fusion reporter assay
Settings: Mammarenavirus juninense

SMILES	IC50 [nM]
COc1ccc(CN2C(=O)CN(C(=O)c3cc4ccccc4o3)CC2CCc2ccccc2)cc1 (configuration not stated)	200
COc1ccc(CN2C(=O)CN(C(=O)c3cc4ccccc4s3)CC2CCc2ccccc2)cc1 (configuration not stated)	200
Cc1ccc(CN2C(=O)CN(C(=O)c3cc4ccccc4o3)CC2Cc2ccccc2)cc1 (racemic)	200
